Results as given in US20210169690A1, “Self-Retaining Implantable Drug Delivery Device” (GoldenBiotech, LLC, priority 2019, published 2021).

Columns and labels:
Format in all cases: physicochemical
[1] = Higuchi equation analysis of drug release data
Description: In order to ascertain whether the mechanism of drug release was based on diffusion, data obtained from various coated silicone polymer matrices were analyzed using the Higuchi equation. This analysis determined the linearity between the cumulative amount of drug released and the square root of time (SQRT). […] As exemplified FIG. 10, data is plotted as the square root of time taken on the x-axis and the cumulative percentage of drug release on the y-axis.

[2] = Visual examination of physical appearance and mixing of drug-loaded silicone polymer matrix test samples
Source text: To test the loading capacity of a silicone elastomer polymer matrix for a prostaglandin analogue, polymer matrix with different amounts and types of a prostaglandin analogue were made and the physical and mechanical properties of the resulting polymerized drug-loaded matrix were characterized (Tables 1-3). These polymer matrix test samples were made by mixing together a prostaglandin analogue, a liquid cyclic vinyl siloxane elastomer, a crosslinker, and a catalyst using a high-speed mixer and then heated the capped container at 70° C. for 24 hours to cure the mixture. A filler, such as a fumed silica, was also used to provide sufficient mechanical strength to the polymerized matrix. In addition, an inhibitor was used to slow the crosslinking reaction to a workable rate. The resulting thin-disc-shaped drug-loaded polymer matrix was allowed to cool to room temperature and then placed in 4° C. for 24 hours to increase stiffness of the material. The physical appearance of each drug-loaded polymer matrix test sample was examined visually and its mechanical properties analyzed using a durometer.

[3] = Chemical stability of prostaglandin analogues in PBS, RPHPLC; conditions: PBS at pH 4, 7 and 10; 4° C., 33° C. and 50° C.
Description: The chemical stability of prostaglandin analogues was also examined. In these experiments, a prostaglandin analogue was incubated in phospho-buffered saline (PBS) at pH 4, 7 and 10 and at 4° C., 33° C. and 50° C. representing long term storage, eye temperature and accelerate temperature conditions respectively. Analyses were performed by RPHPLC as described in Example 2, noting any hydrolysis products formed. […] This stability is most likely due to the amide linkage in Bimatoprost which is much more hydrolytically stable than the ester linkage in Latanoprost and Travoprost.

[4] = Korsmeyer-Peppas analysis of drug release data; conditions: for Average n Values, Korsmeyer-Peppas Analysis, Mean: Mean over drug loadings
Description: To confirm the results obtained based on the Higuchi equation analysis, the data above was also analyzed using the Korsmeyer-Peppas plot, which evaluates the mechanism of drug release by plotting the log of percent drug released over the log time in hours. If n equals 0.45, then Fickian diffusion is indicated for a cylinder (0.42 for cylinder of low aspect ratio). […] As exemplified FIG. 11, data is plotted as the log of cumulative percent drug released on the y-axis and the log time in hours on the x-axis.

[5] = Modified Higuchi plot (2A versus Q^2/T)
Description: Travoprost and Latanoprost are oily liquids at room temperature whereas Bimatoprost is a solid at room temperature. To determine whether the liquid versus solid phase of these drugs affects their release from the silicone polymer matrix, data was analyzed using an alternative plot based on the Higuchi equation where twice the drug loading value (2A) is plotted on the […] and the average slope of the plot of cumulative drug released squared versus time in hours (Q^2/T) is plotted on the […].

[6] = In vitro drug release from silicone polymer matrix test samples in PBS pH 7.4 at 37° C., RPHPLC; conditions: for Daily Release Rate: 25% Latanoprost matrix plug, PTFE Thread Seal Tape coat, two 18G depot channels
Description: To test the controlled release properties of the disclosed drug-loaded silicone polymer matrices, the effects of a coating were examined. In these experiments, test samples were made as described in Example 1 to produce thin-disc-shaped drug-loaded polymer matrix. From this material, test samples were prepared by 1) cutting out rectangular polygons of about 3 mm length, about 1 mm width and about 1 mm height were cut from polymerized drug-loaded material; or 2) cutting out cylindrical plugs of about 3 mm length and having a diameter of about 0.5 mm to about 1 mm. The weight of the test samples were in the range about 0.1 mg to about 4 mg.
Certain of these cut test samples were then coated using one of three procedures. Cut test samples were coated with a polymer like poly(p-xylylene) (PARYLENE) to a thickness of about 0.10 μm to about 0.95 μm using a vapor phase deposition procedure. Similarly, cut test samples were coated a metal like titanium to a thickness of about 0.10 μm to about 0.95 μm using a vapor phase deposition procedure. Alternatively, cut test samples were physically wrapped with a tape like polytetrafluoroethylene tape and sealed using cyanoacrylate adhesive.
The presence of opening in a coated test sample was also examined. In these experiments, coated test samples were punctured to produce opening through the coating layer. From one to four opening were made using the tip of an 18G, 23G, 27G or 31G needle. Two types of opening were produced 1) surface pores which created openings only through the coating layer but left the polymer matrix intact; and 2) depot channels which created a tunnel through the entire coated test sample from one end to the other end.
To examine the drug release properties of a test sample, each sample was placed in 2 mL Eppendorf tube containing 1.5 mL of Phosphate Buffered Saline, pH 7.4 (PBS). These tubes were slowly rocked at 37° C. in an incubator. At given time points the PBS was completely removed from the tube and refilled with fresh PBS. An aliquot of the removed PBS was then analyzed by reversed phase HPLC (RPHPLC) to determine the amount of drug released from the test sample during the incubation period. In these experiments, a 10 μL injection of the test sample aliquot was run on an Agilent 1260 Infinity in a reverse phase isocratic mode using UV detection at 210 nm. The column was a Hypersil GOLD Phenyl column, (Dim. (mm) 250×4.6) and the mobile phase was a 1:1 mixture of acetonitrile to aqueous buffer (comprising HPLC grade water mixed with 5 mM ammonium acetate and 0.02% formic acid). The flow rate was 1.2 mL/min and column temperature was 22° C. Peak detection and quantitation was determined by establishing a calibration curve using known amounts of each drug tested and the amount of drug present in the test sample aliquot interpolated from this calibration curve using ChemStation software.

## CCNC(=O)CCC/C=C\C[C@@H]1[C@@H](/C=C/[C@@H](O)CCc2ccccc2)[C@H](O)C[C@@H]1O [Bimatoprost]
[1]; Drug Loading 1%
  Average Linear Regression r^2 Value, Higuchi Equation Analysis: 0.992
[1]; Drug Loading 2.5%
  Average Linear Regression r^2 Value, Higuchi Equation Analysis: 0.995
[1]; Drug Loading 5%
  Average Linear Regression r^2 Value, Higuchi Equation Analysis: 0.997
[1]; Drug Loading 10%
  Average Linear Regression r^2 Value, Higuchi Equation Analysis: 0.988
[1]; Drug Loading 15%
  Average Linear Regression r^2 Value, Higuchi Equation Analysis: 0.994
[1]; Drug Loading 20%
  Average Linear Regression r^2 Value, Higuchi Equation Analysis: 0.972
[2]; 15% or 20% Bimatoprost test samples
  mixing in the liquid siloxane elastomer: difficult to mix in the liquid siloxane elastomer
[2]; 20% Bimatoprost test sample
  physical examination of test sample: brittle and contained clumps of unincorporated components from the mixture
[3]
  chemical stability (hydrolysis products): excellent stability with Bimatoprost being the most stable
[4]; Drug Loading 1%
  Average n Values, Korsmeyer-Peppas Analysis: 0.326±
[4]; Drug Loading 2.5%
  Average n Values, Korsmeyer-Peppas Analysis: 0.372±
[4]; Drug Loading 5%
  Average n Values, Korsmeyer-Peppas Analysis: 0.411±
[4]; Drug Loading 10%
  Average n Values, Korsmeyer-Peppas Analysis: 0.377±
[4]; Drug Loading 15%
  Average n Values, Korsmeyer-Peppas Analysis: 0.380±
[4]; Drug Loading 20%
  Average n Values, Korsmeyer-Peppas Analysis: 0.601±
[4]
  Average n Values, Korsmeyer-Peppas Analysis, Mean: 0.37 ± 0.08
[5]; Loading (A %) 1.0
  average slope of cumulative drug released squared versus time in hours (Q^2/T): 0.204 ± 0.035
[5]; Loading (A %) 2.5
  average slope of cumulative drug released squared versus time in hours (Q^2/T): 0.387 ± 0.009
[5]; Loading (A %) 5.0
  average slope of cumulative drug released squared versus time in hours (Q^2/T): 1.680 ± 0.232
[5]; Loading (A %) 10
  average slope of cumulative drug released squared versus time in hours (Q^2/T): 2.327 ± 0.252
[5]; Table 10, FIG. 12 and FIG. 13
  relationship of Q^2/T to 2A in modified Higuchi plot: linear relationship

## CC(C)OC(=O)CCC/C=C\C[C@@H]1[C@@H](CC[C@@H](O)CCc2ccccc2)[C@H](O)C[C@@H]1O [Latanoprost]
[1]; Drug Loading 5%
  Average Linear Regression r^2 Value, Higuchi Equation Analysis: 0.964
[1]; Drug Loading 10%
  Average Linear Regression r^2 Value, Higuchi Equation Analysis: 0.983
[1]; Drug Loading 15%
  Average Linear Regression r^2 Value, Higuchi Equation Analysis: 0.990
[1]; Drug Loading 20%
  Average Linear Regression r^2 Value, Higuchi Equation Analysis: 0.990
[2]; 25% Latanoprost test sample
  physical examination of test sample: exhibited more elasticity but had a surface with tacky attributes and a consistency that was not fully homogeneous
[4]; Drug Loading 5%
  Average n Values, Korsmeyer-Peppas Analysis: 0.504±
[4]; Drug Loading 10%
  Average n Values, Korsmeyer-Peppas Analysis: 0.501±
[4]; Drug Loading 15%
  Average n Values, Korsmeyer-Peppas Analysis: 0.712±
[4]; Drug Loading 20%
  Average n Values, Korsmeyer-Peppas Analysis: 1.200±
[4]
  Average n Values, Korsmeyer-Peppas Analysis, Mean: 0.57 ± 0.16
[6]; day 7
  Daily Release Rate: 3.86 µg/day
[6]; day 19
  Daily Release Rate: 5.68 µg/day
[6]; day 29
  Daily Release Rate: 3.60 µg/day
[6]; day 64
  Daily Release Rate: 5.11 µg/day
[6]; day 71
  Daily Release Rate: 8.13 µg/day
[6]; day 106
  Daily Release Rate: 2.82 µg/day
[6]; day 122
  Daily Release Rate: 1.18 µg/day
[6]; coated test sample, 25% Latanoprost, four surface pores
  period of near zero order release: 42 days
[6]; coated test sample, 25% Latanoprost, four surface pores, as of 140 days
  total amount of drug released: 2.2%
[6]; uncoated silicone polymer matrix loaded with 10% Latanoprost, FIG. 5
  release profile: rapid release of the drug over the first five days, which then tapers off and by day 12 shows no further significant release of Latanoprost
